Measurements reported in patent publication US10076519B2 (CYTOKINETICS, INC., priority 2010, dated 2018).

The compounds below were run on rabbit skeletal myofibrils (fast skeletal myofibrils) (assay: Activation of fast skeletal myofibrils (PUMA assay, PK/LDH-coupled ATPase at pCa25)). Conditions: AC1.4 determined according to the procedure of Example 39; reported as class symbols.
Type: biochemical
How it was run: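 ATPase activity of Triton-washed rabbit skeletal myofibrils, roughly 90% fast fibres, tracked by NADH loss at 340 nm through a PK/LDH-coupled ADP-regenerating system. Calcium set to 25% of maximal activity (pCa25), in PIPES 12 mM pH 6.8 with 2 mM MgCl2 and 1 mM DTT; AC1.4 reported.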

SMILES	Mean AC1.4
CC(C)(CNc1ccc(C(=O)N2CCCC2C(N)=O)nn1)c1ccc(F)cc1 (stereo not shown) [1-[(6-{[2-(4-fluorophenyl)-2-methylpropyl]amino}pyridazin-3-yl)carbonyl]pyrrolidine-2-carboxamide]	D (D=>20 uM)
CC(C)(CNc1ccc(C(=O)N2CCC(C(N)=O)C2)nn1)c1ccc(F)cc1 (stereo not shown) [1-[(6-{[2-(4-fluorophenyl)-2-methylpropyl]amino}pyridazin-3-yl)carbonyl]pyrrolidine-3-carboxamide]	D (D=>20 uM)
CC(C)(CNc1ccc(C(=O)NC2(C(N)=O)CC2)nn1)c1ccc(F)cc1 [1-[(6-{[2-(4-fluorophenyl)-2-methylpropyl]amino}pyridazin-3-yl)carbonylamino]cyclopropane-carboxamide]	D (D=>20 uM)
CC(C)(CNc1ccc(C(=O)NC2(C(=O)O)CC2)nn1)c1ccc(F)cc1 [1-[(6-{[2-(4-fluorophenyl)-2-methylpropyl]amino}pyridazin-3-yl)carbonylamino]cyclopropane-carboxylic acid]	D (D=>20 uM)
CC(=O)N1CC(CNc2ccc(-c3ccc4[nH]ncc4c3)nn2)(c2ncccc2F)C1 [1-acetyl-3-(3-fluoro(2-pyridyl))-3-{[(6-(1H-indazol-5-yl)pyridazin-3-yl)amino]methyl}azetidine]	D (D=>20 uM)
CC(=O)N1CC=C(c2ccc(NCC(C)(C)c3ccc(F)cc3)nn2)CC1 [1-acetyl-4-(6-{[2-(4-fluorophenyl)-2-methylpropyl]amino}pyridazin-3-yl)-1,2,5,6-tetrahydropyridine]	D (D=>20 uM)
CC(C)(CNc1ccc(-c2ccccc2C(N)=O)nn1)c1ccc(F)cc1 [2-(6-{[2-(4-fluorophenyl)-2-methylpropyl]amino}pyridazin-3-yl)benzamide]	B (B=1-10 uM)
CC(C)(CNc1ccc(-c2cc(C(N)=O)ccn2)nn1)c1ccc(F)cc1 [2-(6-{[2-(4-fluorophenyl)-2-methylpropyl]amino}pyridazin-3-yl)pyridine-4-carboxamide]	A (A=<1 uM)
CC(C)(O)c1n[nH]c2ccc(-c3ccc(NCC(C)(C)c4ccc(F)cc4)nn3)cc12 [2-[5-(6-{[2-(4-fluorophenyl)-2-methylpropyl]amino}pyridazin-3-yl)-1H-indazol-3-yl]propan-2-ol]	B (B=1-10 uM)

Same assay, conditions: median AC1.4 class, procedure of Example 39

SMILES	Mean AC1.4
CC(O)c1cnc(-c2ccc(NCC3(c4ncccc4F)CCC3)nn2)s1 (stereo not shown) [1-{2-[6-({[(3-fluoro-2-pyridyl)cyclobutyl]methyl}ami-no)pyridazin-3-yl]-1,3-thiazol-5-yl}ethan-1-ol]	B (B=1-10 uM)
CC(=O)c1cnc(-c2ccc(NCC3(c4ncccc4F)CCC3)nn2)s1 [1-{2-[6-({[(3-fluoro-2-pyridyl)cyclobutyl]methyl}ami-no)pyridazin-3-yl]-1,3-thiazol-5-yl}ethan-1-one]	C (C=10-20 uM)
O=C(NCc1cnc(-c2ccc(NCC3(c4ncccc4F)CCC3)nn2)s1)c1ncn[nH]1 [1H-1,2,4-triazol-5-yl-N-({2-[6-({[(3-fluoro(2-pyridyl))cyclobutyl]methyl}ami-no)pyridazin-3-yl](1,3-thiazol-5-yl)}methyl)carboxamide]	A (A=<1 uM)
OC(c1cnc(-c2ccc(NCC3(c4ncccc4F)CCC3)nn2)s1)C(F)(F)F (stereo not shown) [2,2,2-trifluoro-1-{2-[6-({[(3-fluoro(2-pyridyl))cyclobutyl]methyl}ami-no)pyridazin-3-yl](1,3-thiazol-5-yl)}ethan-1-ol]	B (B=1-10 uM)
OC(O)(c1cnc(-c2ccc(NCC3(c4ncccc4F)CCC3)nn2)s1)C(F)(F)F [2,2,2-trifluoro-1-{2-[6-({[(3-fluoro(2-pyridyl))cyclobutyl]methyl}ami-no)pyridazin-3-yl](1,3-thiazol-5-yl)}ethane-1,1-diol]	B (B=1-10 uM)
OC(c1cnc(-c2ccc(NCC3(c4ncccc4F)CCC3)nn2)s1)C(F)F (stereo not shown) [2,2-difluoro-1-{2-[6-({[(3-fluoro(2-pyridyl))cyclobutyl]methyl}ami-no)pyridazin-3-yl](1,3-thiazol-5-yl)}ethan-1-ol]	B (B=1-10 uM)
CC(C)(Nc1ccc(-c2ncc(C(N)=O)s2)nn1)c1ncccc1Cl [2-(6-{[1-(3-chloro(2-pyridyl))-isopropyl]amino}pyridazin-3-yl)-1,3-thiazole-5-carboxamide]	B (B=1-10 uM)
CC(C)(CNc1ccc(-c2ncc(C(N)=O)s2)nn1)c1ncccc1F [2-(6-{[2-(3-fluoro(2-pyridyl))-2-methylpropyl]amino}pyridazin-3-yl)-1,3-thiazole-5-carboxamide]	A (A=<1 uM)
NC(=O)c1cnc(-c2ccc(NCC3(c4ccccn4)CCC3)nn2)s1 [2-(6-{[(2-pyridylcyclobutyl)methyl]ami-no}pyridazin-3-yl)-1,3-thiazole-5-carboxamide]	A (A=<1 uM)
O=C(O)c1cnc(-c2ccc(NCC3(c4ccccn4)CCC3)nn2)s1 [2-(6-{[(2-pyridylcyclobutyl)methyl]ami-no}pyridazin-3-yl)-1,3-thiazole-5-carboxylic acid]	C (C=10-20 uM)
NC(=O)c1cnc(-c2ccc(NC3(c4ncccc4F)CCC3)nn2)s1 [2-(6-{[(3-fluoro-2-pyridyl)cyclobutyl]amino}pyr-idazin-3-yl)-1,3-thiazole-5-carboxamide]	B (B=1-10 uM)
NC(=O)c1cnc(-c2ccc(NC3(c4ccc(F)cc4)CCC3)nn2)s1 [2-(6-{[(4-fluorophenyl)cyclobutyl]ami-no}pyridazin-3-yl)-1,3-thiazole-5-carboxamide]	B (B=1-10 uM)
NC(=O)c1ccnc(C2(Nc3ccc(-c4cc(C(N)=O)ccc4F)nn3)CCC2)c1 [2-({[6-(3-carbamoyl-6-fluorophenyl)pyridazin-3-yl]amino}cyclobutyl)pyridine-4-carboxamide]	D (D=>20 uM)
CC(C)(Nc1ccc(-c2ncc(C(N)=O)s2)nn1)c1cccc(OC(F)F)n1 [2-[6-({1-[6-(difluoromethoxy)(2-pyridyl)]-isopropyl}amino)pyridazin-3-yl]-1,3-thiazole-5-carboxamide]	B (B=1-10 uM)
O=C(c1cnc(-c2ccc(NCC3(c4ncccc4F)CCC3)nn2)s1)N1CCCC(O)C1 (stereo not shown) [2-[6-({[(3-fluoro(2-pyridyl))cyclobutyl]methyl}ami-no)pyridazin-3-yl](1,3-thiazol-5-yl) 3-hydroxypiperidyl ketone]	C (C=10-20 uM)
O=C(c1cnc(-c2ccc(NCC3(c4ncccc4F)CCC3)nn2)s1)N1CCC(O)C1 (stereo not shown) [2-[6-({[(3-fluoro(2-pyridyl))cyclobutyl]methyl}ami-no)pyridazin-3-yl](1,3-thiazol-5-yl) 3-hydroxypyrrolidinyl ketone]	C (C=10-20 uM)
O=C(c1cnc(-c2ccc(NCC3(c4ncccc4F)CCC3)nn2)s1)N1CCC(O)CC1 [2-[6-({[(3-fluoro(2-pyridyl))cyclobutyl]methyl}ami-no)pyridazin-3-yl](1,3-thiazol-5-yl) 4-hydroxypiperidyl ketone]	C (C=10-20 uM)
O=C(c1cnc(-c2ccc(NCC3(c4ncccc4F)CCC3)nn2)s1)N1CCOCC1 [2-[6-({[(3-fluoro(2-pyridyl))cyclobutyl]methyl}ami-no)pyridazin-3-yl](1,3-thiazol-5-yl) morpholin-4-yl ketone]	C (C=10-20 uM)
Cn1cc(C(N)=O)nc1-c1ccc(NCC2(c3ncccc3F)CCC2)nn1 [2-[6-({[(3-fluoro(2-pyridyl))cyclobutyl]methyl}ami-no)pyridazin-3-yl]-1-methylimidazole-4-carboxamide]	D (D=>20 uM)
Cn1c(C(N)=O)cnc1-c1ccc(NCC2(c3ncccc3F)CCC2)nn1 [2-[6-({[(3-fluoro(2-pyridyl))cyclobutyl]methyl}ami-no)pyridazin-3-yl]-1-methylimidazole-5-carboxamide]	B (B=1-10 uM)
N#Cc1sc(-c2ccc(NCC3(c4ncccc4F)CCC3)nn2)nc1O [2-[6-({[(3-fluoro(2-pyridyl))cyclobutyl]methyl}ami-no)pyridazin-3-yl]-4-hydroxy-1,3-thiazole-5-carbonitrile]	D (D=>20 uM)
NC(=O)c1sc(-c2ccc(NCC3(c4ncccc4F)CCC3)nn2)nc1O [2-[6-({[(3-fluoro(2-pyridyl))cyclobutyl]methyl}ami-no)pyridazin-3-yl]-4-hydroxy-1,3-thiazole-5-carboxamide]	B (B=1-10 uM)
COc1nc(-c2ccc(NCC3(c4ncccc4F)CCC3)nn2)sc1C(N)=O [2-[6-({[(3-fluoro(2-pyridyl))cyclobutyl]methyl}ami-no)pyridazin-3-yl]-4-methoxy-1,3-thiazole-5-carboxamide]	A (A=<1 uM)
COc1nc(-c2ccc(NCC3(c4ncccc4F)CCC3)nn2)sc1C(=O)O [2-[6-({[(3-fluoro(2-pyridyl))cyclobutyl]methyl}ami-no)pyridazin-3-yl]-4-methoxy-1,3-thiazole-5-carboxylic acid]	C (C=10-20 uM)

Same assay, conditions: median AC1.4 reported as class; procedure of Example 39

SMILES	Mean AC1.4
CC(=O)N1CCN(Cc2cnc(-c3ccc(NCC4(c5ncccc5F)CCC4)nn3)s2)CC1 [1-acetyl-4-({2-[6-({[(3-fluoro(2-pyridyl))cyclobutyl]methyl}ami-no)pyridazin-3-yl](1,3-thiazol-5-yl)}methyl)piperazine]	D (D=>20 uM)
CNC(=O)Cc1csc(NC(=O)c2ccc(NCC3(c4ncccc4F)CCC3)nn2)n1 [2-(2-{[6-({[(3-fluoro(2-pyridyl))cyclobutyl]methyl}ami-no)pyridazin-3-yl]carbonylamino}(1,3-thiazol-4-yl))-N-methylacetamide]	A (A=<1 uM)
CC(C)(Nc1ccc(-c2ncc(CC(N)=O)s2)nn1)c1ncccc1Cl [2-[2-(6-{[1-(3-chloro(2-pyridyl))-isopropyl]amino}pyridazin-3-yl)-1,3-thiazol-5-yl]acetamide]	D (D=>20 uM)
CC(C)(CNc1ccc(-c2ncc(CC(N)=O)s2)nn1)c1ncccc1Cl [2-[2-(6-{[2-(3-chloro(2-pyridyl))-2-methylpropyl]amino}pyridazin-3-yl)-1,3-thiazol-5-yl]acetamide]	B (B=1-10 uM)
